Among the data in US6004959A, “Alkyloxyamino substituted fluorenones and their use as protein kinase-C inhibitors” (Hoechst Marion Roussel, Inc., priority 1997, dated 1999) are IC50 values, retold here.

In this assay the target is Protein kinase C (PKC). As to the kind of experiment: Protein kinase C assay (96-well, H1 histone phosphorylation, 32P-ATP). Type of assay: biochemical. The settings on record: PKC partially purified from rat brain; H1 histone 200 μg, 50 μM ATP, 5-7 min, room temperature; estimated error of IC50 less than 10%. Here is the method:
Protein kinase C (PKC) was partially purified from the cytosol of rat brains as described by […]., Thromb. Res. 44:649-660, 1986. After removing the brains, all manipulations were carried out at 4° C. Briefly, the cerebellum was removed from 8-10 rat brains and each brain was then homogenized in 9 ml sucrose/EDTA (0.32 M sucrose, 1 mM EDTA, 5 mM Tris, pH 7.4). The pooled homogenate was then centrifuged at 1000×g for 10 min at 4° C., the pellet resuspended in the same volume of fresh sucrose/EDTA and recentrifuged at 1000×g for 10 min. at 4° C. The supernatants from each of these spins was pooled and centrifuged at 25,700×g for 30 min. at 4° C., and the resulting pellet homogenized in 20 ml of buffer A. (20 mM Tris pH 7.5, 0.1 mM calcium chloride, 0.4 mM leupeptin), at 4° C. Membrane associated PKC was then pelleted by centrifugation at 45,700×g at 4° C. for 15 min. and resuspended in 20 ml of buffer A. This step was repeated for a total of 3 centrifugations, discarding the supernatants and finally resuspending the pellet in 20 ml of buffer B (20 mM Tris pH 7.5, 1 mM EGTA, 1 mM EDTA, and 0.01 mM leupeptin) and stirring on ice for 30 min. Disassociated PKC was then collected by centrifuging at 45,700×g at 4° C. for 15 min. The pellet was discarded and the supernatant centrifuged at 100,000×g at 4° C. for 60 min. The pellet was again discarded and the supernatant was adjusted to remove all EDTA and EGTA by adding sufficient volume of a stock solution containing 100 mM each CaCl2 and MgCl2 to give a final concentration of 1 mM Ca^++ and 1 mM Mg^++. The resulting slurry was then applied to a 12 cm×1 cm DE-52 (DEAE cellulose, Whatman®) column previously equilibrated with buffer B. […] After washing the column with 70 ml of buffer B to remove unbound proteins, undesired proteins were eluted with 40 ml of buffer B containing 40 mM NaCl and the PKC containing fraction eluted with 20 ml of buffer B containing 150 mM NaCl. The PKC eluate was then concentrated to about 5 ml using an Amicon® ultrafiltration cell fitted with a PM-10 membrane, and excess NaCl removed by adding back 30 ml 5 mM Tris pH 7.4 and reconcentrating to a final volume of about 5 ml. The concentrated and desalted PKC prep was then adjusted to contain 10% glycerol and 0.5% Triton X-100 before aliquoting and storing 200 μL volumes at -70° C. Frozen preps were stable for at least 3 months at -70°0 C. Protein kinase C was assayed using a semi-automated 96-well plate procedure based upon the procedures of Aftab and Hait, and […] and Vial (Aftab, D. T. and W. N. Hait., Anal Biochem. 187:84-88. 1990.; […]. and Vial, H. J., Anal Biochem. 184:283-290. 1990). Briefly, each well of a 96 well "u" well microtiter plate received a total of 100 μl assay volume consisting of final concentrations of 30 mM Tris pH 7.4, 10 mM MgSO4, 1 mM EGTA, 200 μg Hl histone (Sigma Type III-S H5505), 50 μM ATP, 0.5 μCi 30 Ci/mmol ^32 P-ATP, and 30 μl PKC extract diluted in 5 mM Tris, pH 7.4 containing 1 mg per ml each of leupeptin, pepstatin and chymastatin, and 1 mM phenylmethylsulfonylfluoride. Reactions were started by adding the PKC extract and stopped by the addition of 50 μl 40% trichloroacetic acid, followed by 25 μl of 50 mM unlabelled ATP and 25 μl of 0.5% bovine serum albumin, and then collected on glass fiber filters using a Skatron® automatic micro cell harvester. Samples were washed for 30 seconds with 5% trichloroacetic acid, dried for 5 seconds on the harvester, and then transferred to scintillation vials for counting and subsequent data analysis. Reactions were run for five to seven minutes at room temperature. Data were fit to a competitive binding curve using the ENZFITTER® program (Biosoft). The error estimated for the IC50 values was less than 10%.

Each structure is given as a SMILES string. pIC50: −log10 of the molar value. Where a name gives a salt, the structure may show the parent alone.

Consider `CCCOc1cc(OC)c2c(c1)C(=O)c1cccc(OCCN3CCOCC3)c1-2` [I.D. No. 104,439, 5-[2-(morpholino-4-yl)-ethoxy]-4-methoxy-2-propyloxy-fluoren-9-one hydrochloride], for which the negative-log IC50 (pIC50) (commonly the IC50 on a negative log10 scale, so that one unit is a factor of ten) was less than 5.00. Take `CCN(CC)CCOc1cc(OC)c2c(c1)C(=O)c1cccc(OCCN(CC)CC)c1-2` [I.D. No. 105,711, 2,5-bis-(2-diethylamino-ethoxy)-4-methoxy-fluoren-9-one]: the pIC50 was 5.96. Next, `CCN(CC)CCOc1cccc2c1C(=O)c1cccc(OCCN(CC)CC)c1-2` [I.D. No. 104,147, 1,5-Bis[(diethylamino)ethoxy]-fluoren-9-one]: 4.82; `CCN(CC)CCCOc1cccc2c1-c1ccc(OC)cc1C2=O` [I.D. No. 103,388, 5-(3-Diethylamino-propoxy)-2-methoxy-fluoren-9-one]: 4.25; `CN(C)CCCOc1ccc2c(c1)C(=O)c1cccc(OCCCN(C)C)c1-2` [I.D. No. 102,352, 2,5-Bis-(3-dimethylamino-propoxy)-fluoren-9-one]: 4.30.

Turning to `CCN(CC)CCOc1cccc2c1-c1ccc(OC)cc1C2=O` [I.D. No. 103,949, 5-(2-Diethylamino-ethoxy)-2-methoxy-fluoren-9-one], the pIC50 is 5.15. Consider `CCN(CC)CCOc1cccc2c1-c1c(OC)cc(OC)cc1C2=O` [I.D. No. 105,950, 5-(2-Diethylamino-ethoxy)-2,4-dimethoxy-fluoren-9-one], for which the pIC50 was 6.05. Then `CN(C)CCOc1ccc2c(c1)C(=O)c1cccc(OCCN(C)C)c1-2` [I.D. No. 101,209, 2,5-Bis-(2-dimethylamino-ethoxy)-fluoren-9-one], with 4.96. Then `CCCOc1cc(OC)c2c(c1N)C(=O)c1cccc(OCCN(CC)CC)c1-2` [I.D. No. 105,509, 1-Amino-5-(2-diethylamino-ethoxy)-4-methoxy-2-propoxy-fluoren-9-one], with 7.10; and `CCN(CC)CCOc1cccc2c1-c1c(OC)cccc1C2=O` [I.D. No. 104,652, 4-(2-diethylamino-ethoxy)-5-methoxy-fluoren-9-one], with 6.00; and `CCCOc1cc(OC)c2c(c1)C(=O)c1cccc(OCCN(CC)CC)c1-2` [I.D. No. 104,952, 5-(2-diethylamino-ethoxy)-4-methoxy-2-propoxy-fluoren-9-one], with 6.24.

Turning to `CCN(CC)CCOc1ccc2c(c1)C(=O)c1cccc(OCCN(CC)CC)c1-2` [I.D. No. 11,080, 2,5-Bis[(2-diethylamino)ethoxy]-fluoren-9-one], the pIC50 was 5.52.

For `CCCOc1ccc2c(c1)C(=O)c1cccc(OCCN(CC)CC)c1-2` [I.D. No. 103,049, 5-(2-Diethylamino-ethoxy)-2-propoxy-fluoren-9-one], the pIC50 was 5.05. Next, `CCN(CC)CCOc1cccc2c1-c1c(OCCN(CC)CC)cccc1C2=O` [I.D. No. 104,488]: 4.04; `CCN(CC)CCOc1cccc2c1-c1c(OC)cc(OC)c(N)c1C2=O` [I.D. No. 105,473, 1-Amino-5-(2-diethylamino-ethoxy)-2,4-dimethoxy-fluoren-9-one hydrochloride]: 6.80. In the case of `CCCOc1cc(OC)c2c(c1N)C(=O)c1cccc(OCCN3CCOCC3)c1-2` [I.D. No. 104,427, 5-[2-(morpholino-4-yl)-ethoxy]-1-amino-4-methoxy-2-propyloxy-fluoren-9-one hydrochloride], the pIC50 was 5.64. For the compound `CCN(CC)CCOc1ccc2c(c1)-c1c(OCCN(CC)CC)cccc1C2=O` [I.D. No. 104,004, 3,5-Bis[(2-diethylamino)ethoxy]-fluoren-9-one], the pIC50 was 5.40.
